Measurements from patent publication US20260325487A1 (BS BIOTECHNA SPOLKA AKCYJNA, priority 2023, published 2026).
Like-named read-outs stand apart in the source and are kept apart here.

How the values were obtained:
Type in all cases: cell-based
NCI-H226 = experiment: SRB anti-proliferative assay, NCI-H226, molecular combination and nanoparticles, with combination index (Example III); conditions: Homo sapiens
Procedure: (§1) Cells were thawed from ampoules stored in liquid nitrogen and cultured in petri dishes in the appropriate culture medium according to Table 16, in a humidified 5% CO2 atmosphere at 37° C. Cells were passaged twice weekly using EDTA-Trypsin solution, pH 8, as a separating agent. Counted cells with a viability of at least 90% as assessed with Trypan-Blue solution were used for anti-proliferation assays.
(§2) Twenty-four hours before the addition of the test compounds/combinations, cells were seeded into 384-well plates at 50 μL/well and a density of 10^3 cells/well, in the appropriate culture medium. […] Solutions of the compounds were diluted in the test medium—RPMI-1640 and Opti-MEM in a 1:1 ratio, and the medium was supplemented with 2 mM glutamine and 5% fetal bovine serum FBS.
(§3) After 72 h, colourimetric assessment of cell growth was performed by SRB. […] Unbound dye was removed by washing the plates (4×) in 1% (v/v) acetic acid, and protein-bound dye was extracted with 10 mM unbuffered Tris base and the optical density (A=540 nm) was determined in a BioTek Synergy H4 Hybrid computer microplate reader (BioTek Instruments USA). The entire washing/staining procedure was performed using a BioTek EL406 washing station (BioTek Instruments USA). The raw absorbance results were analysed in Microsoft Excel software using the formula:
(§4) [formula] • Where: • % Zahlnh-inhibition of proliferation • Am—absorbance of wells without cells (medium) • Ak—absorbance of control wells (cells treated with pure culture medium) • Ap—absorbance of wells treated with compounds
(§5) Each compound at the indicated concentrations was tested in triplicate in one experiment. Each experiment was repeated three times. Data analysis was supplemented with synergy assessment using CalcuSyn software. […] A CI value below 0.8 indicates synergism, 0.8-1.2 an additive effect, above 1.2 an antagonism.

LN229 = experiment: SRB anti-proliferative assay, LN229, with CalcuSyn combination index (Example 1); conditions: Homo sapiens, LN-229, 72 h, read-out: Zah. (inhibition of proliferation)
Procedure: as §1, with “in” for “in the”, “2,” for “16,”, “8.” for “8, as a separating agent.”, “anti-proliferative” for “anti-proliferation”
(§6) Twenty-four hours before the addition of the test compounds/combinations, cells were seeded into 384-well plates at 50 μL/well and a density of 10^3 cells/well, in the appropriate culture medium.
as §3, with “Solutions of the compounds were diluted in the test medium-RPMI-1640 and Opti-MEM in a 1:1 ratio, and the medium was supplemented with 2 mM glutamine and 5% fetal bovine serum FBS. After” for “After”
as §4, §5

NCI-H520 = experiment: SRB anti-proliferative assay, NCI-H520, with CalcuSyn combination index (Example 1); conditions: Homo sapiens, NCI-H520, 72 h, read-out: Zah. (inhibition of proliferation)
Procedure: as §1, with “in” for “in the”, “2,” for “16,”, “8.” for “8, as a separating agent.”, “anti-proliferative” for “anti-proliferation”
as §6
as §3, with “Solutions of the compounds were diluted in the test medium-RPMI-1640 and Opti-MEM in a 1:1 ratio, and the medium was supplemented with 2 mM glutamine and 5% fetal bovine serum FBS. After” for “After”
as §4, §5

LUDLU-1 = experiment: SRB anti-proliferative assay, LUDLU-1, molecular combination and nanoparticles, with combination index (Example III); conditions: Homo sapiens, LUDLU-1, read-out: Zah. (inhibition of cell proliferation)
Procedure: as §1, §2, §3, §4, §5

A375 = experiment: SRB anti-proliferative assay, A375, with CalcuSyn combination index (Example 1); conditions: Homo sapiens, A-375, 72 h, read-out: Zah. (inhibition of proliferation)
Procedure: as §1, with “in” for “in the”, “2,” for “16,”, “8.” for “8, as a separating agent.”, “anti-proliferative” for “anti-proliferation”
as §6
as §3, with “Solutions of the compounds were diluted in the test medium-RPMI-1640 and Opti-MEM in a 1:1 ratio, and the medium was supplemented with 2 mM glutamine and 5% fetal bovine serum FBS. After” for “After”
as §4, §5

SK-MEL3 = experiment: SRB anti-proliferative assay, SK-MEL3, with CalcuSyn combination index (Example 1); conditions: Homo sapiens, SK-MEL3, 72 h, read-out: Zah. (inhibition of proliferation)
Procedure: as §1, with “in” for “in the”, “2,” for “16,”, “8.” for “8, as a separating agent.”, “anti-proliferative” for “anti-proliferation”
as §6
as §3, with “Solutions of the compounds were diluted in the test medium-RPMI-1640 and Opti-MEM in a 1:1 ratio, and the medium was supplemented with 2 mM glutamine and 5% fetal bovine serum FBS. After” for “After”
as §4, §5

BxPC3 = experiment: SRB anti-proliferative assay, BxPC3, with CalcuSyn combination index (Example 1); conditions: Homo sapiens, BXPC-3, 72 h, read-out: Zah. (inhibition of proliferation)
Procedure: as §1, with “in” for “in the”, “2,” for “16,”, “8.” for “8, as a separating agent.”, “anti-proliferative” for “anti-proliferation”
as §6
as §3, with “Solutions of the compounds were diluted in the test medium-RPMI-1640 and Opti-MEM in a 1:1 ratio, and the medium was supplemented with 2 mM glutamine and 5% fetal bovine serum FBS. After” for “After”
as §4, §5

## C=CCNC1=C2C[C@@H](C)C[C@H](OC)[C@H](O)[C@@H](C)/C=C(\C)[C@H](OC(N)=O)[C@@H](OC)/C=C\C=C(/C)C(=O)NC(=CC1=O)C2=O [17AAG, 17-AAG (tanespimycin)]
NCI-H226; NCI-H226, read-out: Inhibition of cell proliferation (Zah.), single agent, 3.2 nM
  inhibition at 0.0032 µM: 10.4%
NCI-H226; NCI-H226, read-out: Inhibition of cell proliferation (Zah.), single agent, 10 nM
  inhibition at 0.01 µM: 17.2%
NCI-H226; NCI-H226, read-out: Inhibition of cell proliferation (Zah.), single agent, 31.6 nM
  inhibition at 0.0316 µM: 29.4%
NCI-H226; NCI-H226, read-out: Inhibition of cell proliferation (Zah.), single agent, 100 nM
  inhibition at 0.1 µM: 51.4%
NCI-H226; NCI-H226, read-out: Inhibition of cell proliferation (Zah.), single agent, 316.3 nM
  inhibition at 0.3163 µM: 59.1%
NCI-H226; NCI-H226, read-out: Inhibition of cell proliferation (Zah.), single agent, 1000 nM
  inhibition at 1 µM: 65%
NCI-H226; NCI-H226, read-out: Inhibition of cell proliferation (Zah.), single agent, 3162.5 nM
  inhibition at 3.1625 µM: 69.5%
NCI-H226; NCI-H226, read-out: Inhibition of cell proliferation (Zah.), single agent, 10000.5 nM
  inhibition at 10.0005 µM: 68.4%
NCI-H226; NCI-H226, read-out: Zah. (inhibition of cell proliferation), NCI-H226 (Table 35a), compound alone, 3.2 nM
  inhibition at 0.0032 µM: 10.4%
NCI-H226; NCI-H226, read-out: Zah. (inhibition of cell proliferation), NCI-H226 (Table 35a), compound alone, 10 nM
  inhibition at 0.01 µM: 17.2%
NCI-H226; NCI-H226, read-out: Zah. (inhibition of cell proliferation), NCI-H226 (Table 35a), compound alone, 31.6 nM
  inhibition at 0.0316 µM: 29.4%
NCI-H226; NCI-H226, read-out: Zah. (inhibition of cell proliferation), NCI-H226 (Table 35a), compound alone, 100 nM
  inhibition at 0.1 µM: 51.4%
NCI-H226; NCI-H226, read-out: Zah. (inhibition of cell proliferation), NCI-H226 (Table 35a), compound alone, 316.3 nM
  inhibition at 0.3163 µM: 59.1%
NCI-H226; NCI-H226, read-out: Zah. (inhibition of cell proliferation), NCI-H226 (Table 35a), compound alone, 1000 nM
  inhibition at 1 µM: 65%
NCI-H226; NCI-H226, read-out: Zah. (inhibition of cell proliferation), NCI-H226 (Table 35a), compound alone, 3162.5 nM
  inhibition at 3.1625 µM: 69.5%
NCI-H226; NCI-H226, read-out: Zah. (inhibition of cell proliferation), NCI-H226 (Table 35a), compound alone, 10000.5 nM
  inhibition at 10.0005 µM: 68.4%
NCI-H226; NCI-H226, read-out: Zah. (inhibition of cell proliferation), NCI-H226, compound alone, 3.2 nM
  inhibition at 0.0032 µM: -6.6%
NCI-H226; NCI-H226, read-out: Zah. (inhibition of cell proliferation), NCI-H226, compound alone, 10 nM
  inhibition at 0.01 µM: -4.6%
NCI-H226; NCI-H226, read-out: Zah. (inhibition of cell proliferation), NCI-H226, compound alone, 31.6 nM
  inhibition at 0.0316 µM: 30.6%
NCI-H226; NCI-H226, read-out: Zah. (inhibition of cell proliferation), NCI-H226, compound alone, 100 nM
  inhibition at 0.1 µM: 44.7%
NCI-H226; NCI-H226, read-out: Zah. (inhibition of cell proliferation), NCI-H226, compound alone, 316.3 nM
  inhibition at 0.3163 µM: 49.3%
NCI-H226; NCI-H226, read-out: Zah. (inhibition of cell proliferation), NCI-H226, compound alone, 1000 nM
  inhibition at 1 µM: 59%
NCI-H226; NCI-H226, read-out: Zah. (inhibition of cell proliferation), NCI-H226, compound alone, 3162.5 nM
  inhibition at 3.1625 µM: 63.5%
NCI-H226; NCI-H226, read-out: Zah. (inhibition of cell proliferation), NCI-H226, compound alone, 10000.5 nM
  inhibition at 10.0005 µM: 61.4%
LN229
  inhibition at 0.0032 µM: 3.3%
  inhibition at 0.01 µM: 3.1%
  inhibition at 0.0316 µM: 18.4%
  inhibition at 0.1 µM: 28.9%
  inhibition at 0.3163 µM: 38.7%
  inhibition at 1 µM: 62.9%
  inhibition at 3.1625 µM: 71.6%
  inhibition at 10.0005 µM: 81.5%
NCI-H520
  inhibition at 0.0031 µM: 5.9%
  inhibition at 0.01 µM: 15.3%
  inhibition at 0.03 µM: 28.3%
  inhibition at 0.1 µM: 48.1%
  inhibition at 0.3124 µM: 56.8%
  inhibition at 1 µM: 59.9%
  inhibition at 3.1392 µM: 63.5%
  inhibition at 10 µM: 65.8%
LUDLU-1
  inhibition at 0.0003163 µM: 3.9%
  inhibition at 0.001 µM: 29.3%
  inhibition at 0.0032 µM: 61.9%
  inhibition at 0.01 µM: 75.1%
  inhibition at 0.0316 µM: 60.2%
  inhibition at 0.1 µM: 65.7%
  inhibition at 0.3163 µM: 76.9%
  inhibition at 1 µM: 80.2%
A375
  inhibition at 0.0031 µM: 24.1%
  inhibition at 0.01 µM: 53.3%
  inhibition at 0.0314 µM: 83.2%
  inhibition at 0.1 µM: 89.2%
  inhibition at 0.3155 µM: 91.6%
  inhibition at 1 µM: 96.3%
  inhibition at 3.1546 µM: 97.1%
  inhibition at 10 µM: 97%
SK-MEL3
  inhibition at 0.0031 µM: 1.1%
  inhibition at 0.01 µM: 14%
  inhibition at 0.0314 µM: 40.3%
  inhibition at 0.1 µM: 48.5%
  inhibition at 0.3155 µM: 58.1%
  inhibition at 1 µM: 58.5%
  inhibition at 3.1546 µM: 60.7%
  inhibition at 10 µM: 76.6%
BxPC3
  inhibition at 0.0031 µM: 1.7%
  inhibition at 0.01 µM: 2.7%
  inhibition at 0.0314 µM: 24.4%
  inhibition at 0.1 µM: 54.7%
  inhibition at 0.3155 µM: 75.9%
  inhibition at 1 µM: 89.4%
  inhibition at 3.1546 µM: 95.3%
  inhibition at 10 µM: 95.2%
